Key:
[1] = tested on: P. aeruginosa clinical isolates; test: Growth with efflux inhibitor reserpine; format: cell-based, Pseudomonas aeruginosa; conditions: P. aeruginosa isolate 1420
[2] = tested on: human red blood cells (hRBCs)
Pseudomonas aeruginosa = test: MIC micro broth dilution assay; format: cell-based; conditions: for MIC: P. aeruginosa, purified compounds; for concentration inhibiting growth of 90% of isolates: panel of clinical P. aeruginosa isolates
[3] = tested on: Acinetobacter baumannii biofilm; test: Minimum biofilm eradication concentration; format: cell-based; conditions: A. baumannii biofilm; purified compounds
Staphylococcus aureus = test: MIC micro broth dilution assay; format: cell-based; conditions: S. aureus; purified compounds
[4] = tested on: Staphylococcus aureus biofilm; test: Minimum biofilm eradication concentration; format: cell-based; conditions: S. aureus biofilm; purified compounds
[5] = tested on: Staphylococcus aureus (USA300 strain FPR3757); test: Murine model of lethal peritonitis; format: in vivo; conditions: 2xMIC, I.M., 1h post-infection; six mice per group
A. baumannii = test: Serial passage resistance assay; format: cell-based, Acinetobacter baumannii; conditions: 8 passages
S. aureus = test: Serial passage resistance assay; format: cell-based, Staphylococcus aureus; conditions: 8 passages, concentration doubled each day
[6] = tested on: Pseudomonas aeruginosa biofilm; test: Minimum biofilm eradication concentration; format: cell-based; conditions: P. aeruginosa biofilm; purified compounds
Klebsiella pneumoniae = test: MIC micro broth dilution assay; format: cell-based; conditions: for MIC: K. pneumoniae, purified compounds; for concentration inhibiting growth of 90% of isolates: panel of clinical K. pneumoniae isolates
Acinetobacter baumannii = test: MIC micro broth dilution assay; format: cell-based; conditions: A. baumannii; purified compounds
[7] = tested on: Klebsiella pneumoniae biofilm; test: Minimum biofilm eradication concentration; format: cell-based; conditions: K. pneumoniae biofilm; purified compounds
E. cloacae biofilm = test: Minimum biofilm eradication concentration; format: cell-based; conditions: purified compounds
human A549 cells = test: Cytotoxicity MTT assay; format: cell-based; conditions: for IC50: read-out: IC50 A549, toxicity towards human A549 cells, MTT, 48 hours
E. cloacae [8] = test: MIC micro broth dilution assay; format: cell-based; conditions: for MIC: E. cloacae, purified compounds; for concentration inhibiting growth of 90% of isolates: panel of clinical E. cloacae isolates
[9] = tested on: K. pneumoniae strain 1441; test: Growth with efflux inhibitor reserpine; format: cell-based, Klebsiella pneumoniae; conditions: with 100 μM of reserpine
E. cloacae [10] = format: cell-based; conditions: 8 passages
P. aeruginosa = format: cell-based, Pseudomonas aeruginosa; conditions: 8 passages
Enterococcus faecium = test: MIC micro broth dilution assay; format: cell-based; conditions: E. faecium; purified compounds
ESKAPE pathogens = test: MIC micro broth dilution assay, all six species together; format: cell-based
K. pneumoniae = test: Serial passage resistance assay; format: cell-based, Klebsiella pneumoniae; conditions: 8 passages
[11] = tested on: Enterococcus faecium biofilm; test: Minimum biofilm eradication concentration; format: cell-based; conditions: E. faecium biofilm; purified compounds
E. cloacae strain 1446 = test: Growth with efflux inhibitor reserpine; format: cell-based; conditions: with 100 μM of reserpine
MRSA cells = test: Time kill assay; format: cell-based, Staphylococcus aureus

Molecule	MIC (Pseudomonas aeruginosa) [µM]	concentration inhibiting growth of 90% of isolates (Pseudomonas aeruginosa) [µM]	MBEC50 [3] [µM]	MIC (Staphylococcus aureus) [µM]	MBEC50 [4] [µM]	survival of infected mice over 5 days [5]	fold increase in MIC after serial passage (S. aureus)	MBEC50 [6] [µM]	MIC (Klebsiella pneumoniae) [µM]	concentration inhibiting growth of 90% of isolates (Klebsiella pneumoniae) [µM]	MIC (Acinetobacter baumannii) [µM]	MBEC50 [7] [µM]	MBEC50 (E. cloacae biofilm) [µM]	IC50 (human A549 cells) [µM]	MIC (E. cloacae [8]) [µM]	concentration inhibiting growth of 90% of isolates (E. cloacae [8]) [µM]	MIC (Enterococcus faecium) [µM]	concentration with antibacterial activity against all 6 species (ESKAPE pathogens) [µM]	other results
COC(=O)[C@H]1[C@H]2C[C@@H]3c4[nH]c5cc(OC)ccc5c4CCN3C[C@H]2C[C@@H](OC(=O)c2cc(OC)c(OC)c(OC)c2)[C@@H]1OC [reserpine, reference compound]	–	–	–	–	–	–	–	–	–	–	–	–	–	–	–	–	–	–	effect on growth, reserpine alone ([1]; 100 μM of reserpine): no effect
Triton-X100	–	–	–	–	–	–	–	–	–	–	–	–	–	–	–	–	–	–	hemolysis, positive control [2]: 100%
(S)-1-(4-((S)-3-(4-cyclohexylbutyl)-2-iminoimidazolidin-4-yl)butyl)-4-(cyclohexylmethyl)-3-hexylimidazolidin-2-imine [compound 16]	1.6	5	14	1.6	7.6	only a single mouse succumbing to infection after the first day	16 fold	34	1.6	5	1.6	6.3	13	> 225	1.6	2	1.6	< 2	fold increase in MIC after serial passage (A. baumannii): ≤ 8 fold; A549 recovery (human A549 cells; at concentrations up to 100 μM): > 65%; effect on growth, compound in combination with reserpine [9]: complete inhibition of growth; fold increase in MIC after serial passage (E. cloacae [10]): ≤ 8 fold; fold increase in MIC after serial passage (P. aeruginosa): 8 fold; fold increase in MIC after serial passage (K. pneumoniae): ≤ 8 fold
(S)-4-butyl-3-hexyl-1-(4-((S)-2-imino-3-(3-(trifluoromethyl)phenethyl)imidazolidin-4-yl)butyl)imidazolidin-2-imine [compound 1]	1.6	10	15	1.6	14	all mice survived	two-fold	20	1.6	10	1.6	7.0	13	164	1.6	10	1.6	< 2	MBEC50 [11]: 39 µM; effect on growth, compound combined with reserpine ([1]; 2 μM compound + 100 μM reserpine): strongly inhibited growth; effect on growth, compound alone ([1]; 2 μM of compound, no reserpine): no effect
(S)-4-(cyclohexylmethyl)-3-hexyl-1-(4-((S)-2-imino-3-(3-(trifluoromethyl)phenethyl)imidazolidin-4-yl)butyl)imidazolidin-2-imine [compound 7]	1.5	10	13	1.5	4.4	1 mouse lost on each of days 2 and 4	four-fold	46	1.5	5	1.5	4.8	15	66	1.5	2	1.5	< 2	fold increase in MIC after serial passage (A. baumannii): ≤ 8 fold; effect on growth, compound in combination with reserpine (E. cloacae strain 1446): complete inhibition of growth; MBEC50 [11]: 26 µM; A549 recovery (human A549 cells; above 45 μM, at concentrations up to 225 μM): ≥ 33%; A549 recovery (human A549 cells; at 45 μM): > 60%; fold increase in MIC after serial passage (E. cloacae [10]): ≤ 8 fold; fold increase in MIC after serial passage (K. pneumoniae): ≤ 8 fold
lysostaphin: a S. aureus specific lytic agent, positive control	–	–	–	–	–	–	–	–	–	–	–	–	–	–	–	–	–	–	lysis of MRSA cells (MRSA cells; within 10 minutes of exposure, 4 μM lysostaphin): > 50%
benzalkonium chloride [reference compound]	–	–	–	–	–	–	–	–	–	–	–	–	–	–	–	–	–	–	cells recovered / surviving exposure (optical density relative to start) (MRSA cells; MRSA, 2 h, 2.0% SDS, 0.001% benzalkonium chloride, 0.001% benzethonium chloride): 29%
CCCC[C@H]1CN(CCCC[C@H]2CNC(=N)N2CCc2cccc(C(F)(F)F)c2)C(=N)N1CCCCC1CCCCC1 [compound 2, (S)-4-butyl-3-(4-cyclohexylbutyl)-1-(4-((S)-2-imino-3-(3-(trifluoromethyl)phenethyl)imidazolidin-4-yl)butyl)imidazolidin-2-imine]	–	5	–	–	–	only a single mouse succumbing to infection after the first day	two-fold	–	–	5	–	–	–	–	–	5	–	< 2	–

— publication PMC8982266 (Journal of medicinal chemistry, 2015)
